{"source": "patent US20180230127A1", "about": "(PFIZER INC., priority 2015, published 2018)", "note": "Structures can show the parent of a compound that is named as a salt.", "data": [{"target": "T1, human IRAK4 kinase domain (aa 154-460) (Homo sapiens, UniProt Q9NWZ3)", "T1 construct": "human IRAK4 kinase domain (aa 154-460; GenBank ID AF445802)", "T1 sequence (Q9NWZ3 154-460)": "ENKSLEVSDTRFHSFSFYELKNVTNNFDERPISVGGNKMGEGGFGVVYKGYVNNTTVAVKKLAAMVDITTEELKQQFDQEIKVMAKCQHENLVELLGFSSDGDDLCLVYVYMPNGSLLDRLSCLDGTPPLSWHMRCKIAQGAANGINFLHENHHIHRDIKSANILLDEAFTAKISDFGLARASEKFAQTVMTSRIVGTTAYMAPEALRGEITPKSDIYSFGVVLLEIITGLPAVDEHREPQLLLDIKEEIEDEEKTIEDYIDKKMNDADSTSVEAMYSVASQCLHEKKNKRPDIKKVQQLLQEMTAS", "test": "IRAK4 Enzymatic DELFIA Assay", "assay_type": "biochemical", "settings": "0.6 mM ATP (KM); 114 pM IRAK4 kinase domain; 200 nM substrate; 5% DMSO", "method": "IRAK4 Enzymatic DELFIA Assay.\nThis is an in vitro assay to measure IRAK4 enzymatic activity utilizing the DELFIA (Dissociation-Enhanced Lanthanide Fluorescent Immunoassay, Perkin-Elmer) platform, with the human IRAK4 kinase domain (aa 154-460) construct to characterize IRAK4 inhibitor and control compounds at 0.6 mM ATP (KM). The final amount of enzyme in the assay is 114 pM IRAK4 kinase domain, final concentration of substrate is 200 nM, and final concentration of DMSO is 5%.\nThe test compound was solubilized in DMSO to a stock concentration of 30 mM. The dose response plates were prepared with a 2 mM primary compound concentration, and then diluted in DMSO in a four-fold series for a total of 10 data points. Compounds were prepared as a 20-fold multiple of the final in-assay concentration\nTo begin the assay, 45 μL of reaction mixture containing 20 mM HEPES pH=7.5, 5 mM MgCl2, 0.0025% Brij-35, […], 228 pM phosphorylated recombinant human IRAK4 kinase domain (aa 154-460; GenBank ID AF445802) were aliquoted into Ultra-Clear Polypropylene, 96-well, U-Bottom Plates (Corning Life Sciences). 5 μL of test compound from the dose-response plate was added to the reaction mixture and incubated for 15 minutes at room temperature. Then 50 μL of 20 mM HEPES pH=7.5, 5 mM MgCl2, 0.0025% Brij-35, 600 μM ATP, and 400 nM ERM-biotinylated peptide (AGAGRDKYKTLRQIR) were added to start the reaction. The reaction was incubated for 90 minutes at room temperature and stopped by the addition of 25 μL 0.5M EDTA.\n100 μL of the reaction mixture was transferred to a streptavidin coated detection plate (EvenCoat Streptavidin Coated Plates, 96-Well, R&D Systems) and incubated for 30 minutes at room temperature. The plates were washed 4 times with 100 μL per well of PBS containing 0.05% Tween-20. Plates were then incubated with 50 μL per well of antibody cocktail of Anti-pERM antibody (Cell Signaling Technology) diluted 1:5000, plus Anti-Rabbit IgG EuN1 at 0.242 μg/ml (Perkin-Elmer Life Sciences) in a solution of 10 mM MOPS pH=7.5, 150 mM NaCl, 0.05% Tween-20, 0.02% NaN3, 1% BSA, 0.1% Gelatin for 45 minutes. The plates were washed 4× with 100 μL per well of PBS containing 0.05% Tween-20. Then 100 μL per well of DELFIA Enhancement Solution were added to the plate and then read on an EnVision Model 2103 using a 340 nm excitation wavelength and a 665 nm emission detection.", "units": {"IC50": "nM"}, "values": [{"smiles": "CC(C)Oc1cc2c(O[C@@H]3CCNC[C@H]3F)nccc2cc1C(N)=O", "note": "[Example 19, 1-{[(3R,4R)-3-fluoropiperidin-4-yl]oxy}-7-(propan-2-yloxy)isoquinoline-6-carboxamide]", "IC50": 39}, {"smiles": "COc1cc2c(O[C@@H]3CCCNC3)ccnc2cc1C(N)=O", "note": "[Example 22, 6-methoxy-4-[(3R)-piperidin-3-yloxy]quinoline-7-carboxamide hydrochloride]", "IC50": 428}, {"smiles": "CC(C)Oc1cc2c(O[C@H]3CCN(C(=O)CC#N)C[C@H]3F)ccnc2cc1C(N)=O", "note": "[Example 18, 4-{[(3R,4S)-1-(cyanoacetyl)-3-fluoropiperidin-4-yl]oxy}-6-(propan-2-yloxy)quinoline-7-carboxamide formate]", "IC50": 660}, {"smiles": "CC(C)Oc1cc2c(OC3CCNC3)ccnc2cc1C(N)=O", "note": "(stereo not drawn) [Example 24, 6-(propan-2-yloxy)-4-(pyrrolidin-3-yloxy)quinoline-7-carboxamide]", "IC50": 611}, {"smiles": "CC(C)Oc1cc2c(O[C@@H]3[C@@H]4CC=C[C@H]3NC4=O)nccc2cc1C(N)=O", "note": "[Example 66, 1-{[(1S,5R,8R)-7-oxo-6-azabicyclo[3.2.1]oct-3-en-8-yl]oxy}-7-(propan-2-yloxy)isoquinoline-6-carboxamide]", "IC50": 38}, {"smiles": "CC(C)Oc1cc2c(O[C@@H]3CCCN(C(=O)CO)C3)ccnc2cc1C(N)=O", "note": "[Example 4, 4-{[(3R)-1-(hydroxyacetyl)piperidin-3-yl]oxy}-6-(propan-2-yloxy)quinoline-7-carboxamide formate]", "IC50": 13}, {"smiles": "COCC(=O)N1CCC[C@@H](Oc2ccnc3cc(C(N)=O)c(OC(C)C)cc23)C1", "note": "[Example 8, 4-{[(3R)-1-(methoxyacetyl)piperidin-3-yl]oxy}-6-(propan-2-yloxy)quinoline-7-carboxamide formate]", "IC50": 168}, {"smiles": "CC(C)Oc1cc2c(O[C@@H]3CCCN(C(=O)C(F)F)C3)ccnc2cc1C(N)=O", "note": "[Example 5, 4-{[(3R)-1-(difluoroacetyl)piperidin-3-yl]oxy}-6-(propan-2-yloxy)quinoline-7-carboxamide formate]", "IC50": 35}, {"smiles": "CC(C)Oc1cc2c(O[C@@H]3CCCN(C(=O)C(C)C#N)C3)ccnc2cc1C(N)=O", "note": "(mixture of isomers) [Example 34, 4-{[(3R)-1-(2-cyanopropanoyl)piperidin-3-yl]oxy}-6-(propan-2-yloxy)quinoline-7-carboxamide]", "IC50": 926}, {"smiles": "CC(C)Oc1cc2c(OC3CCCNC3)cccc2cc1C(N)=O", "note": "(stereo not drawn) [Example 57, 3-isopropoxy-5-(piperidin-3-yloxy)-2-naphthamide hydrochloride]", "IC50": 40}, {"smiles": "CC(C)Oc1cc2c(O[C@@H]3CCCN(C(=O)CC#N)C3)ccnc2cc1C(N)=O", "note": "[Example 28, 4-{[(3R)-1-(cyanoacetyl)piperidin-3-yl]oxy}-6-(propan-2-yloxy)quinoline-7-carboxamide]", "IC50": 4}, {"smiles": "CC(C)Oc1cc2c(O[C@H]3CCN(C(=O)CC#N)C3)ccnc2cc1C(N)=O", "note": "[Example 39, 4-{[(3S)-1-(cyanoacetyl)pyrrolidin-3-yl]oxy}-6-(propan-2-yloxy)quinoline-7-carboxamide]", "IC50": 156}, {"smiles": "CC(C)Oc1cc2c(OC3CCN(C(=O)CC#N)CC3)nccc2cc1C(N)=O", "note": "[Example 50, 1-{[1-(cyanoacetyl)piperidin-4-yl]oxy}-7-(propan-2-yloxy)isoquinoline-6-carboxamide]", "IC50": 514}, {"smiles": "CC(C)Oc1cc2c(O[C@@H]3CCCN(C(=O)C(C)(N)CO)C3)ccnc2cc1C(N)=O", "note": "(mixture of isomers) [Example 12, Racemic-4-{[(3R)-1-(2-amino-3-hydroxy-2-methylpropanoyl)piperidin-3-yl]oxy}-6-(propan-2-yloxy)quinoline-7-carboxamide formate]", "IC50": 626}, {"smiles": "CC(C)Oc1cc2c(O[C@H]3CCN(C(=O)CC#N)[C@@H]3C)ccnc2cc1C(N)=O", "note": "[Example 17, 4-{[(2R,3S)-1-(cyanoacetyl)-2-methylpyrrolidin-3-yl]oxy}-6-(propan-2-yloxy)quinoline-7-carboxamide formate]", "IC50": 111}]}]}
